Experimental data reported in BindingDB's records for PubMed 7509389 (Fujisawa Pharmaceutical, 1994).

Target: T1, Gastrin/cholecystokinin type B receptor (Rattus norvegicus, UniProt P30553)
T1 sequence (P30553 whole entry): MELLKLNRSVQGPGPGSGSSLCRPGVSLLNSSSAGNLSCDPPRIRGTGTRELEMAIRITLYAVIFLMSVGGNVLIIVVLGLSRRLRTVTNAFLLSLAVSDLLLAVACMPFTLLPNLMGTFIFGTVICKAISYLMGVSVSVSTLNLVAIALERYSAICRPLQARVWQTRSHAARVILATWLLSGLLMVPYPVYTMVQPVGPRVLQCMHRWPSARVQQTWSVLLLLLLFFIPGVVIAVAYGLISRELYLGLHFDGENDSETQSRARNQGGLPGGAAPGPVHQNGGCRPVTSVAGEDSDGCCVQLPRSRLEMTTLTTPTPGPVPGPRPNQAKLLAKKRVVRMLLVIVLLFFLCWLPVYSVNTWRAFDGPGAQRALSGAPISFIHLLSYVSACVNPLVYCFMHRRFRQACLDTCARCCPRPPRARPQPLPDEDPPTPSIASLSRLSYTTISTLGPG

- Ki: 330 nM
SMILES: CCCCCN(CCCOC)C(=O)C(CCC(=O)O)NC(=O)c1ccc(Cl)c(Cl)c1 (stereo unspecified) [4-(3,4-dichlorobenzamido)-5-((3-methoxypropyl)(pentyl)amino)-5-oxopentanoic acid]
